Some test systems named below: U251 CNS; SK-MEL-28 melanoma; RPMI-8226 leukemia; MALME-3M melanoma; SK-MEL-5 melanoma; HL-60(TB) leukemia; CCRF-CEM leukemia; SN12C renal; BT-549 breast; SF-268 CNS.
Holding throughout (test): NCI tumour cell line growth inhibition, 48 h

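How tested: cells in 96-well plates exposed to compound for 48 hours at five concentrations. At the TGI there is no net growth.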 *1 amine or outer side, *2 acyl side, *3 side chain or, on linkers, in order; H or OH if unused. Where a SMILES comes first, the peptide text is derived from it. Bridges are numbered along the chain shown (N, C = ends). [ ]: non-standard residue; d: D form. ξ: configuration not given here. X35 = CC[C@H](C)[C@@H](N[*:1])[C@@H](O)CC(=O)O[C@H](C(=O)[C@H](C)C(=O)[*:2])C(C)C; NMeY = CN[C@@H](Cc1ccc(O)cc1)C(=O)O; dNMeL = CN[C@H](CC(C)C)C(=O)O; ξΔPro = O=C(O)C1C=CCN1

In the case of `COc1cc2c(c(OC)c1)C(=O)O[C@H](C)CCCC/C=C/C2`, the TGI in the test with U251 CNS is 30.5 µM; in the test on SK-MEL-28 melanoma, over 34.1 µM; in the test on RPMI-8226 leukemia, 25.6 µM; in the test with MALME-3M melanoma, 31.3 µM; with SK-MEL-5 melanoma, 11.2 µM; in the test with HL-60(TB) leukemia it was 4.45 µM. Besides, the TGI with CCRF-CEM leukemia is over 100 µM; in the test on SN12C renal, 13.6 µM; with BT-549 breast it was over 35.1 µM.

Regarding `CC[C@H](C)[C@H]1NC(=O)[C@@H](NC(=O)[C@@H](CC(C)C)N(C)C(=O)C2C=CCN2)[C@@H](C)OC(=O)[C@H](Cc2ccc(OC)cc2)N(C)C(=O)[C@@H]2CCCN2C(=O)[C@H](CC(C)C)NC(=O)[C@@H](C)C(=O)[C@H](C(C)C)OC(=O)C[C@@H]1O` (some centres undefined) (H-[ξΔPro][dNMeL]T[X35]LP[NMeY](Me); ester 3-C), the TGI with U251 CNS is 0.738 µM; with SK-MEL-28 melanoma, under 0.005 µM; in the test on SF-268 CNS, 0.00802 µM; in the test with MALME-3M melanoma, 0.0146 µM; in the test on SK-MEL-5 melanoma it was 0.0756 µM; in the test with HL-60(TB) leukemia, over 50 µM. Besides, the TGI was over 50 µM in the test on CCRF-CEM leukemia, over 50 µM in the test with SN12C renal and 0.345 µM with BT-549 breast.

Take `CC1CN=C(c2ccc(-c3nc(-c4ccc(C5=NCC(C)N5)cc4)nc(N(C)C)n3)cc2)N1` (centres undefined): the TGI was 2.35 µM with U251 CNS; 8.12 µM in the test with SK-MEL-28 melanoma; 6.53 µM with SF-268 CNS; 17.9 µM in the test on RPMI-8226 leukemia; 8.87 µM with MALME-3M melanoma; 14 µM with SK-MEL-5 melanoma. Further, the TGI stood at 6.88 µM in the test with HL-60(TB) leukemia, 3.59 µM in the test on CCRF-CEM leukemia, 3.87 µM with SN12C renal and 13.7 µM in the test on BT-549 breast.

Regarding `C=CCc1ccccc1C1CC2(C(=O)OC)OC1C(C(=O)OC)=C2C(=O)OC` (centres undefined), the TGI in the test with U251 CNS, in the test with SK-MEL-28 melanoma, with SF-268 CNS, in the test on RPMI-8226 leukemia, in the test with MALME-3M melanoma and in the test with SK-MEL-5 melanoma was over 10 µM each time. The TGI in the test on HL-60(TB) leukemia, in the test with CCRF-CEM leukemia, in the test on SN12C renal and in the test with BT-549 breast was over 10 µM each time.

In the case of `O=C1C(Cl)=C(c2ccc([N+](=O)[O-])cc2)C(=O)c2c(O)cccc21`, the TGI in the test with U251 CNS was 2.22 µM; in the test on SK-MEL-28 melanoma, 4.16 µM; in the test with SF-268 CNS it was 22.4 µM; in the test with RPMI-8226 leukemia it was over 100 µM; with MALME-3M melanoma it was 4.49 µM; in the test with SK-MEL-5 melanoma, 3.46 µM. Also, the TGI with HL-60(TB) leukemia is over 100 µM; in the test on CCRF-CEM leukemia, over 100 µM; in the test with SN12C renal it was 10.7 µM; in the test on BT-549 breast it was 4.72 µM.

On to `Cc1ccc(NC2=N/C(=C/c3ccco3)C(Cl)=N2)cc1`, for which the TGI in the test on U251 CNS, with SK-MEL-28 melanoma, in the test with SF-268 CNS, with RPMI-8226 leukemia, in the test with MALME-3M melanoma and in the test on SK-MEL-5 melanoma was over 100 µM throughout. For the same compound, the TGI in the test on HL-60(TB) leukemia, in the test with CCRF-CEM leukemia, in the test on SN12C renal and in the test on BT-549 breast was over 100 µM in each case.

Turning to `Cn1ccc2c(c1=O)C(=O)OC2(C)C`, the TGI with U251 CNS, in the test on SK-MEL-28 melanoma, with SF-268 CNS, in the test on RPMI-8226 leukemia, in the test on MALME-3M melanoma and in the test with SK-MEL-5 melanoma was over 100 µM in each case. For the same compound, the TGI in the test with HL-60(TB) leukemia, in the test with CCRF-CEM leukemia, with SN12C renal and in the test on BT-549 breast was over 100 µM in each case.

In the case of `CC(C)(CN1CCCCC1)C(/C=C/c1ccccc1)=N\NC(=O)N/N=C(/C=C/c1ccccc1)C(C)(C)CN1CCCCC1`, the TGI in the test on U251 CNS came out at 3 µM; in the test with SK-MEL-28 melanoma, 3.07 µM; with SF-268 CNS, 8.94 µM; with RPMI-8226 leukemia, 3.96 µM; in the test with MALME-3M melanoma it was 3.7 µM; with SK-MEL-5 melanoma it was 3.1 µM. The TGI came to 2.86 µM in the test with HL-60(TB) leukemia, 3.37 µM with CCRF-CEM leukemia, 4.03 µM in the test on SN12C renal and 3.23 µM in the test on BT-549 breast.

Consider `C=CCOC1(CC=C)C(=O)OC2C(O)COC21O` (centres undefined), for which the TGI in the test on U251 CNS, in the test on SK-MEL-28 melanoma, with SF-268 CNS, in the test on MALME-3M melanoma, in the test on SK-MEL-5 melanoma and in the test on HL-60(TB) leukemia was over 100 µM throughout. In addition, the TGI in the test on CCRF-CEM leukemia, with SN12C renal and in the test on BT-549 breast was over 100 µM throughout.

As to `O=c1[nH]c2cc([N+](=O)[O-])c(Nc3c4ccccc4nc4ccccc34)c([N+](=O)[O-])c2[nH]1`, the TGI in the test on U251 CNS turned out to be 22.6 µM; in the test on SK-MEL-28 melanoma it was 12.9 µM; in the test with SF-268 CNS, 10.5 µM; with RPMI-8226 leukemia it was 8.25 µM; in the test with MALME-3M melanoma, 5.09 µM; in the test on SK-MEL-5 melanoma, 7.65 µM. For the same compound, the TGI was determined as 9.39 µM in the test with HL-60(TB) leukemia, 24.3 µM with CCRF-CEM leukemia, 9.1 µM in the test with SN12C renal and 23 µM in the test with BT-549 breast.

For the compound `CC(C#N)N(CCc1ccccc1)C(=O)c1ccccc1` (centres undefined), the TGI in the test with U251 CNS, in the test on SF-268 CNS, in the test with RPMI-8226 leukemia, in the test with MALME-3M melanoma, in the test on SK-MEL-5 melanoma and in the test on HL-60(TB) leukemia was over 100 µM throughout. The TGI with CCRF-CEM leukemia, in the test on SN12C renal and in the test on BT-549 breast was over 100 µM throughout.

As to `COc1cc(S(=O)(=O)Nc2ccc(-c3csc(/N=C\c4ccccc4)n3)cc2)ccc1Cl`, the TGI in the test on SK-MEL-28 melanoma, in the test on SF-268 CNS, in the test with RPMI-8226 leukemia, in the test on MALME-3M melanoma, in the test with SK-MEL-5 melanoma and with HL-60(TB) leukemia was over 100 µM in each case. Further, the TGI in the test with CCRF-CEM leukemia, in the test on SN12C renal and with BT-549 breast was over 100 µM throughout.

Take `COC(=O)[C@@]1(C)CCC[C@]2(C(=O)O)C3Cc4occc4[C@H](C)[C@@H]3CCC21` (some centres undefined): the TGI with U251 CNS, in the test with SK-MEL-28 melanoma, with SF-268 CNS, in the test on MALME-3M melanoma, with SK-MEL-5 melanoma and with HL-60(TB) leukemia was over 100 µM in each case. Besides, the TGI in the test on CCRF-CEM leukemia, in the test on SN12C renal and with BT-549 breast was over 100 µM each time.

Values taken from PubChem BioAssay (NCI).
